Data from patent US9546179B2, “Heterocycle amido alkyloxy substituted quinazoline derivative and use thereof” (priority 2011, dated 2017).

Molecular target: T1, receptor tyrosine kinase EGFR (Homo sapiens, UniProt P00533)
T1 construct: purchased Shanghai 3bio Technology Co., Ltd. Lot No. 4018780925
Experiment: Inhibitory effect on receptor tyrosine kinase EGFR (ELISA, Poly(Glu, Tyr)4:1, PY99 antibody)
Assay type: biochemical
Settings: ATP 4 μM, 1 hour at 37° C.
Protocol: Poly(Glu, Tyr)4:1 was diluted into 100 μg/ml by PBS without potassium. Enzyme label plate was coated with 37 μl/well at 37° C. overnight,
The liquid in the wells was removed. The plate was rinsed by T-PBS for 5 minutes, and dried at 37° C. after repeated 3 times.
The testing sample was diluted to the concentration concerned by reaction buffer solution, and added into the wells of the coated enzyme label plate. The concentration diluted should realize 1.0000 μg/ml, 0.1250 μg/ml, 0.0156 μg/ml, 0.00195 μg/ml and 0.00024 μg/ml in the 100 μl reaction.
Adding in ATP solution (4 μM of final concentration) diluted by reaction buffer solution,
Finally, the tyrosine kinase diluted by reaction buffer solution was added, and forming the reaction with 100 μl total volume.
Meanwhile, negative control wells and enzyme-free control wells were prepared. The reaction was kept in the dark wet box for 1 hour at 37° C. The plate was rinsed by T-PBS for three times after the reaction ended, and blocked by 1% BSA […] for 30 min, and then, PY99 antibody (1:1000 diluted by 0.05% PBST with 1% BSA) was added in 100 μl/well. After incubated at 37° C. for 30 minutes, the plate was rinsed by T-PBS for three times, and the goat anti-mouse IgG marked with HRP (1 mg/ml 1:1000 diluted by 0.05% PBST with 1% BSA) was then added in 100 μl/well. After incubated at 37° C. for 30 minutes, the plate was rinsed by T-PBS for three times.
Colorimetric solution OPD was added in 100 μl/well for 20 minutes' reaction in the dark side at the room temperature. Colorimetric substrate solution OPD was the solution of 0.1 mol/L citric acid-disodium hydrogen phosphate buffer (pH 5.0) with 20 mmol/L OPD and 12 mmol/L H2O2 (freshly prepared when using).
50 μl of 2M H2SO4 (2 mol/L sulfuric acid containing 0.1 mol/L sodium sulfate) was added in to terminate the reaction, and the A492 value was read with adjustable wavelength micro late enzyme-labeling instrument VERSAmax.
The inhibition rate of samples is calculated by the following formula: […]

T1 sequence (P00533 25-1210): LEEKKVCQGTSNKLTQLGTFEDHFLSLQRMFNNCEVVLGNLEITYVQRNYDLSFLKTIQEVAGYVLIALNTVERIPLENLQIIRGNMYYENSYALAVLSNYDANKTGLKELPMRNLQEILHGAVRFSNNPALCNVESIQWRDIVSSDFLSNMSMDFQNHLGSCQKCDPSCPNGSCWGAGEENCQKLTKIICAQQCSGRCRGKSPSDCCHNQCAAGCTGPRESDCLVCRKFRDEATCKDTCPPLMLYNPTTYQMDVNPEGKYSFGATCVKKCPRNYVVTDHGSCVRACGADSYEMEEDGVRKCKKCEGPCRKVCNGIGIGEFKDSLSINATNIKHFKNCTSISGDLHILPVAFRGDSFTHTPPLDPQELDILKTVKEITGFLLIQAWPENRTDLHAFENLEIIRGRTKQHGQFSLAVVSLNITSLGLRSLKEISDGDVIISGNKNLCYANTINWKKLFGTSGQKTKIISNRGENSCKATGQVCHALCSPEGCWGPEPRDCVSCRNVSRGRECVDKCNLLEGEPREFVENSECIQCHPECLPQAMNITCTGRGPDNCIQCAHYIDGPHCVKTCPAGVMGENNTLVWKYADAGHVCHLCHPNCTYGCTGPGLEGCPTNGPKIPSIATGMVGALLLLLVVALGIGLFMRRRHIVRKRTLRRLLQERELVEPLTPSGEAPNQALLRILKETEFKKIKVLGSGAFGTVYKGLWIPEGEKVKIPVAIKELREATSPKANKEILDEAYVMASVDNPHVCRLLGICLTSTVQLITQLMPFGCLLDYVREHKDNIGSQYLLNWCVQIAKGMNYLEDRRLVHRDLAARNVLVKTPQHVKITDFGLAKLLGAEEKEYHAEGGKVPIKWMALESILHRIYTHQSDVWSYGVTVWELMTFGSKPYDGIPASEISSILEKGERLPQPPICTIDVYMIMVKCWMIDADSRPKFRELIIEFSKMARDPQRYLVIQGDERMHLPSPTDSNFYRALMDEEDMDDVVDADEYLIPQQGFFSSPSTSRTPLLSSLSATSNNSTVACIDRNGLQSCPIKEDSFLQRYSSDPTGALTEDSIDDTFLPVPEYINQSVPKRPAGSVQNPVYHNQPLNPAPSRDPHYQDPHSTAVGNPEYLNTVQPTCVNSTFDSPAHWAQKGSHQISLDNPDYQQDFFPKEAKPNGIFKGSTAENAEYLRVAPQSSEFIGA

SMILES | IC50 [nM]
COc1cc2ncnc(Nc3cccc(Cl)c3F)c2cc1OCCCN1CC2(CNC(=O)O2)C1 [Example 36, 4-(3′-chloro-2′-fluorophenylamino)-6-[3-(5-oxa-2,7-diazaspiro[3.4]octane-6-ketone-2-yl)-propoxy]-7-methoxyquinazoline] | 0.1 to 10
COc1cc2ncnc(Nc3cccc(Cl)c3F)c2cc1OCCCN1CCC2(CCC(=O)N2)CC1 [Example 32, 4-(3′-chloro-2′-fluorophenylamino)-6-[3-(1,8-diazaspiro[4.5]decane-2-ketone-8-yl)-propoxy]-7-methoxyquinazoline] | 10 to 100
COc1cc2ncnc(Nc3ccc(F)c(Cl)c3)c2cc1OCCCN1CCC2(CCN(C)C2)C1 (stereo not drawn) [Example 76, 4-(3′-chloro-4′-fluorophenylamino)-6-[3-(7-methyl-2,7-diazaspiro[4.4]nonane-2-yl)-propoxy]-7-methoxyquinazoline] | 10 to 100
C#Cc1cccc(Nc2ncnc3cc(OC)c(OCCCN4CCC5(CC4)CNC(=O)O5)cc23)c1 [Example 46, 4-(3′-ethynylphenylamino)-6-[3-(1-oxa-3,8-diazaspiro[4.5]decane-2-ketone-8-yl)-propoxy]-7-methoxyquinazoline] | 10 to 100
COc1cc2ncnc(Nc3cccc(Cl)c3F)c2cc1OCCCN1CC2(C1)CN(C)C(=O)O2 [Example 37, 4-(3′-chloro-2′-fluorophenylamino)-6-[3-(7-methyl-5-oxa-2,7-diazaspiro[3.4]octane-6-ketone-2-yl)-propoxy]-7-methoxyquinazoline] | 0.1 to 10
COc1cc2ncnc(Nc3ccc(F)c(Cl)c3)c2cc1OCCN1CCC2(CC1)CNC(=O)O2 [Example 58, 4-(3′-chloro-4′-fluorophenylamino)-6-[2-(1-oxa-3,8-diazaspiro[4.5]decane-2-ketone-8-yl)-oxethyl]-7-methoxyquinazoline] | 100 to 1000
COc1cc2ncnc(Nc3cccc(Cl)c3F)c2cc1OCCCN1CC2(CNC(=O)C2)C1 [Example 33] | 10 to 100
C#Cc1cccc(Nc2ncnc3cc(OC)c(OCCCN4CCC5(CCNC5=O)CC4)cc23)c1 [Example 72, 4-(3′-ethynylphenylamino)-6-[3-(2,8-diazaspiro[4.5]decane-1-ketone-8-yl)-propoxy]-7-methoxyquinazoline] | 10 to 100
C#Cc1cccc(Nc2ncnc3cc(OC)c(OCCCN4CCC5(CCNC5=O)C4)cc23)c1 (stereo not drawn) [Example 70, 4-(3′-ethynylphenylamino)-6-[3-(2,7-diazaspiro[4.4]-nonane-1-ketone-7-yl)-propoxy]-7-methoxyquinazoline] | 10 to 100
COc1cc2ncnc(Nc3ccc(F)c(Cl)c3)c2cc1OCCCN1CCC2(CCNC2=O)C1 (stereo not drawn) [Example 80, 4-(3′-chloro-4′-fluorophenylamino)-6-[3-(2,7-diazaspiro[4.4]-nonane-1-ketone-7-yl)-propoxy]-7-methoxyquinazoline] | 0.1 to 10
COc1cc2ncnc(Nc3ccc(F)c(Cl)c3)c2cc1OCCCN1CC2(CNC(=O)C2)C1 [Example 86, 4-(3′-chloro-4′-fluorophenylamino)-6-[3-(2,6-diazaspiro[3.4]octane-7-ketone-2-yl)-propoxy]-7-methoxyquinazoline] | 10 to 100
COc1cc2ncnc(Nc3ccc(F)c(Cl)c3)c2cc1OCCN1CC2(CNC(=O)O2)C1 [Example 60, 4-(3′-chloro-4′-fluorophenylamino)-6-[2-(5-oxa-2,7-diazaspiro[3.4]octane-6-ketone-2-yl)-oxethyl]-7-methoxyquinazoline] | 100 to 1000
COc1cc2ncnc(Nc3ccc(F)c(Cl)c3)c2cc1OCCCN1CCC2(CCNC2=O)CC1 [Example 82, 4-(3′-chloro-4′-fluorophenylamino)-6-[3-(2,8-diazaspiro[4.5]decane-1-ketone-8-yl)-propoxy]-7-methoxyquinazoline] | 10 to 100
COc1cc2ncnc(Nc3ccc(F)c(Cl)c3)c2cc1OCCCN1CCC2(CC1)CNC(=O)O2 [Example 87, 4-(3′-chloro-4′-fluorophenylamino)-6-[3-(1-oxa-3,8-diazaspiro[4.5]decane-2-ketone-8-yl)-propoxy]-7-methoxyquinazoline] | 10 to 100
COc1cc2ncnc(Nc3cc(Cl)ccc3F)c2cc1OCCCN1CC2(CCOCC2)C1 [Example 18, 4-(5′-chloro-2′-fluorophenylamino)-6-[3-(7-oxa-2-azaspiro[3.5]-nonane-2-yl)-propoxy]-7-methoxyquinazoline] | 10 to 100
C#Cc1cccc(Nc2ncnc3cc(OC)c(OCCCN4C5CCC4COC5)cc23)c1 [Example 42, 4-(3′-ethynylphenylamino)-6-[3-(3-oxa-8-azabicyclo[3.2.1]octane-8-yl)-propoxy]-7-methoxyquinazoline] | 100 to 1000
COc1cc2ncnc(Nc3cc(Cl)ccc3F)c2cc1OCCCN1CC2(CNC(=O)C2)C1 [Example 27] | 10 to 100
[2H]C([2H])([2H])Oc1cc2ncnc(Nc3ccc(F)c(Cl)c3)c2cc1OCCCN1CC2(C1)CN(C)C(=O)O2 [Example 98, 4-(3′-chloro-4′-fluorophenylamino)-6-[3-(7-methyl-5-oxa-2,7-diazaspiro[3.4]octane-6-ketone-2-yl)-propoxy]-7-deuterated methoxyquinazoline] | 0.1 to 10
COc1cc2ncnc(Nc3ccc(F)c(Cl)c3)c2cc1OCCN1CC2(COC2)C1 [Example 62, 4-(3′-chloro-4′-fluorophenylamino)-6-[2-(2-oxa-6-azaspiro[3.3]heptane-6-yl)-oxethyl]-7-methoxyquinazoline] | 100 to 1000
C#Cc1cccc(Nc2ncnc3cc(OC)c(OCCCN4CCC5(CC4)CNC(=O)C5)cc23)c1 [Example 43, 4-(3′-ethynylphenylamino)-6-[3-(2,8-diazaspiro[4.5]decane-3-ketone-8-yl)-propoxy]-7-methoxyquinazoline] | 10 to 100

Continued, values first:

IC50 [nM] | SMILES
10 to 100 | COc1cc2ncnc(Nc3cc(Cl)ccc3F)c2cc1OCCCN1CCC2(CCNC2=O)C1 (stereo not drawn) [Example 22, 4-(5′-chloro-2′-fluorophenylamino)-6-[3-(2,7-diazaspiro[4.4]nonane-1-ketone-7-yl)-propoxy]-7-methoxyquinazoline]
10 to 100 | [2H]C([2H])([2H])Oc1cc2ncnc(Nc3ccc(F)c(Cl)c3)c2cc1OCCCN1CCC2(C1)CN(C)C(=O)O2 (stereo not drawn) [Example 96, 4-(3′-chloro-4′-fluorophenylamino)-6-[3-(3-methyl-1-oxa-3,7-diazaspiro[4.4]nonane-2-ketone-7-yl)-propoxy]-7-deuterated methoxyquinazoline]
> 1000 | COc1cc2ncnc(Nc3ccc(F)c(Cl)c3)c2cc1OCCCN1C[C@@H]2CN(C(=O)OC(C)(C)C)C[C@@H]2C1 [Example 88, 4-(3′-chloro-4′-fluorophenylamino)-6-[3-(5-tertbutyloxycarbonyl-hexahydropyrrolo[3,4-c]pyrrole-2-yl)-propoxy]-7-methoxyquinazoline]
10 to 100 | COc1cc2ncnc(Nc3ccc(F)c(Cl)c3)c2cc1OCCCN1CCC2(CCC(=O)N2)CC1 [Example 84, 4-(3′-chloro-4′-fluorophenylamino)-6-[3-(1,8-diazaspiro[4.5]decane-2-ketone-8-yl)-propoxy]-7-methoxyquinazoline]
10 to 100 | COc1cc2ncnc(Nc3cc(Cl)ccc3F)c2cc1OCCCN1C2CCC1COC2 [Example 16, 4-(5′-chloro-2′-fluorophenylamino)-6-[3-(3-oxa-8-azabicyclo[3.2.1]octane-8-yl)-propoxy]-7-methoxyquinazolin]
100 to 1000 | [2H]C([2H])([2H])Oc1cc2ncnc(Nc3ccc(F)c(Cl)c3)c2cc1OCCCN1CC2(CNC(=O)O2)C1 [Example 97, 4-(3′-chloro-4′-fluorophenylamino)-6-[3-(5-oxa-2,7-diazaspiro[3.4]octane-6-ketone-2-yl)-propoxy]-7-deuterated methoxyquinazoline]
10 to 100 | COc1cc2ncnc(Nc3ccc(F)c(Cl)c3)c2cc1OCCCN1CCC2(CCN(C)C2=O)C1 (stereo not drawn) [Example 81, 4-(3′-chloro-4′-fluorophenylamino)-6-[3-(2-methyl-2,7-diazaspiro[4.4]-nonane-1-ketone-7-yl)-propoxy]-7-methoxyquinazoline]
0.1 to 10 | C#Cc1cccc(Nc2ncnc3cc(OC)c(OCCCN4CCC5(CCN(C(C)=O)C5)C4)cc23)c1 (stereo not drawn) [Example 51, 4-(3′-ethynylphenylamino)-6-[3-(7-acetyl-2,7-diazaspiro[4.4]-nonane-2-yl)-propoxy]-7-methoxyquinazoline]
10 to 100 | COc1cc2ncnc(Nc3cc(Cl)ccc3F)c2cc1OCCCN1CCC2(CCOC2)C1 (stereo not drawn) [Example 15, 4-(5′-chloro-2′-fluorophenylamino)-6-[3-(2-oxa-7-azaspiro[4.4]nonane-7-yl)-propoxy]-7-methoxyquinazoline]
10 to 100 | COc1cc2ncnc(Nc3cccc(Cl)c3F)c2cc1OCCCN1CCC2(COC2)C1 [Example 28, 4-(3′-chloro-2′-fluorophenylamino)-6-[3-(2-oxa-6-azaspiro[3.4]octane-6-yl)-propoxy]-7-methoxyquinazoline]
